Experiments:
[1] = biological target: GTP binding domain of Ras; conditions: literature (Feuerstein 1987; John 1990); cited from earlier work
Rac-1 [2] = biological target: T1, Rac-1 (Homo sapiens, UniProt P63000); assay: MicroScale Thermophoresis (MST), GTP affinity; assay type: binding
K-Ras (G12C) [3] = biological target: T2, K-Ras (G12C) (Homo sapiens, UniProt P01116, G12C); assay: MicroScale Thermophoresis (MST), GTP affinity; assay type: binding
From the text: (§1) As disclosed in International Application No. PCT/US2018/038613 and U.S. patent application Ser. No. 16/013,872, the affinity of GTP for the GTP binding domain of K-Ras utilizing a Scintillation Proximity Assay (SPA) and MicroScale Thermophoresis (MST) has been measured. These methods were not available when Wittinghofer and colleagues undertook their studies.
(§2) This therefore led to the novel, unanticipated conclusion that compounds such as small molecules could be discovered that would bind to a Ras GTP binding domain and compete with the binding of GTP to Ras.
(§3) See Khawaja et al., “Scintillation proximity assay in lead discovery”, Expert Opin. Drug Discov., 2008 November; 3 (11): 1267-80 regarding SPA procedures. See the following references regarding MST technology: Wienken et al., Nature Communications (2010), Protein binding assays in biological liquids using MicroScale Thermophoresis; Jerabek-Willemsen et al., ASSAY and Drug Development Technologies (2011), Molecular interaction studies using MicroScale Thermophoresis; Lin et al., Cell (2012), Inhibition of basal FGF receptor signaling by dimeric Grb2; Seidel et al., Angewandte Chemie (2012), Label-Free MicroScale Thermophoresis discriminates sites and affinity of protein-ligand binding; Seidel et al., Methods (2012), MicroScale Thermophoresis quantifies biomolecular interactions under previously challenging conditions; Parker & Newstead, Nature (2014), Molecular basis of nitrate uptake by the plant nitrate transporter NRT1.1; and Jerabek-Willemsen et al., Journal of Molecular Structure (2014), MicroScale Thermophoresis: Interaction analysis and beyond.

K-Ras (G12D) [4] = biological target: T3, K-Ras (G12D) (Homo sapiens, UniProt P01116, G12D); assay: MicroScale Thermophoresis (MST), GTP affinity; assay type: binding
T3 sequence (P01116 1-188 isoform P01116-2 G12D): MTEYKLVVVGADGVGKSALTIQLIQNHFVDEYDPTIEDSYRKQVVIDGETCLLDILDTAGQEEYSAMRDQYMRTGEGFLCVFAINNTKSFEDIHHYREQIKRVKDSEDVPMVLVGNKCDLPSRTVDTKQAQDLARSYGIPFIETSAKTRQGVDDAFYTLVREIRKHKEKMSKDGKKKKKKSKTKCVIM
From the text: as §1, §2, §3

K-Ras (Q61H) [5] = biological target: T4, K-Ras (Q61H) (Homo sapiens, UniProt P01116, Q61H); assay: MicroScale Thermophoresis (MST), GTP affinity; assay type: binding
T4 sequence (P01116 1-188 isoform P01116-2 Q61H): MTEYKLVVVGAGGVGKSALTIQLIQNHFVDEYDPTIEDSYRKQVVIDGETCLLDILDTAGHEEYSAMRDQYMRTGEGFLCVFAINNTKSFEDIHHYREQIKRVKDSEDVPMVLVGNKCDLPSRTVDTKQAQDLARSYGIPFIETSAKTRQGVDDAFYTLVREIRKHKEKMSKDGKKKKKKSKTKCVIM
From the text: as §1, §2, §3

K-Ras (wild type) [6] = biological target: T5, K-Ras (wild type) (Homo sapiens, UniProt P01116); assay: MicroScale Thermophoresis (MST), GTP affinity; assay type: binding
T5 sequence (P01116 1-188 isoform P01116-2): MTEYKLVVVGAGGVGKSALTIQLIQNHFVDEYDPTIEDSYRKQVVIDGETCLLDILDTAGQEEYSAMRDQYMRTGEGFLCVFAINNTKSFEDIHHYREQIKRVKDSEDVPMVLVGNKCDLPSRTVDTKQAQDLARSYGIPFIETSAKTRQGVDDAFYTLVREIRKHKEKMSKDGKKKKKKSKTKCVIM
From the text: as §1, §2, §3

Rho-A [7] = biological target: T6, Rho-A (Homo sapiens, UniProt P61586); assay: MicroScale Thermophoresis (MST), GTP affinity; assay type: binding
T6 sequence (P61586 whole entry): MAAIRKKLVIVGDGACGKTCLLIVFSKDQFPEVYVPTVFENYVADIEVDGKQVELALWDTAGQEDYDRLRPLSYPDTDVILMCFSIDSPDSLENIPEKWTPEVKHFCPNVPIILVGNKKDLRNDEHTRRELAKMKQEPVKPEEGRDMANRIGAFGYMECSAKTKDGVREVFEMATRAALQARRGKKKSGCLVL
From the text: as §1, §2, §3

K-Ras (G12C) [8] = biological target: T2, K-Ras (G12C); assay: Scintillation Proximity Assay (SPA), GTP affinity; assay type: binding
From the text: as §1, §2, §3

K-Ras (G12D) [9] = biological target: T3, K-Ras (G12D); assay: Scintillation Proximity Assay (SPA), GTP affinity; assay type: binding
From the text: as §1, §2, §3

K-Ras (Q61H) [10] = biological target: T4, K-Ras (Q61H); assay: Scintillation Proximity Assay (SPA), GTP affinity; assay type: binding
From the text: as §1, §2, §3

K-Ras (wild type) [11] = biological target: T5, K-Ras (wild type); assay: Scintillation Proximity Assay (SPA), GTP affinity; assay type: binding
From the text: as §1, §2, §3

Rac-1 [12] = biological target: T1, Rac-1; assay: Scintillation Proximity Assay (SPA), GTP affinity; assay type: binding
Rho-A [13] = biological target: T6, Rho-A; assay: Scintillation Proximity Assay (SPA), GTP affinity; assay type: binding
K-Ras GTP binding domain = assay: SPA and MST studies, GTP affinity across wild type and mutant K-Ras
From the text: as §2, §3

Rac-1 and Rho-A = assay: SPA and MST studies, GTP affinity for Rho subfamily members; conditions: read-out: affinity of GTP for the binding domain of Rho subfamily members
From the text: as §2, §3

MEK phosphorylation [14] = assay: Western MEK cell-based phosphorylation assay, PANC-1; conditions: Homo sapiens
Experimental: (§4) Cell lines: Human NSCLC cells NCI-H1975 and tumor-derived pancreatic cancer cell lines Panc-1 and MIA-PaCa-2 were all purchased from American Type Culture Collection and grown in complete RPMI medium (NCI-H1975) or DMEM-High Glucose (Panc1 and MIA-PaCa-2), supplemented with penicillin (100 U/mL), streptomycin (100 μg/mL), and 10% heat-inactivated FBS at 37° C. in a humidified incubator with 5% CO2.
Method: Cells were plated at 350000 cells/well density in a 12-well plate, allowed 3 hours to adhere to the plate, then starved in the appropriate medium in the presence of 0.5% FBS overnight. The small molecules to be tested were added to the cells in the final concentration of 10 μM in the presence of 0.3% DMSO for 6 hours incubation at 37° C. For IC50 value determination, serial dilutions of compounds were added to cells under the same conditions. Next, cells were stimulated with 1.5 ng/ml EGF for 15 minutes then cells were lysed with lysis buffer containing 1% Triton X-100, EDTA, and Halt™ Protease & Phosphatase Inhibitor Cocktail (Thermo Scientific). Protein concentration was assessed by BCA protein assay (Thermo Scientific). Phosphorylation level of MEK was determined by western blot.
Western blot protocol: Equal amounts of protein (15-50 μg) were separated by SDS-PAGE and transferred to nitrocellulose membranes (Invitrogen by Thermo Fisher Scientific). The membrane was stained with Ponceau S Stain (Boston BioProducts) to verify uniform protein loading. Membranes were blocked with 10% milk and phosphorylation levels of MEK were assessed by incubating overnight at 4° C. with anti-phospho-MEK 1/2 (Ser217/Ser221) antibody (Cell Signaling) followed by HRP-conjugated secondary antibody (Jackson Immunoresearch, West Grove, PA). Bands were incubated in Amersham ECL Prime Western Blotting Detection Reagent (GE Healthcare) and visualized using the ChemiDoc MP imaging system (Bio-Rad).

MEK phosphorylation [15] = assay: Western MEK cell-based phosphorylation assay, MIA PaCa-2; conditions: Homo sapiens
Experimental: as §4
(§5) Method: Cells were plated at 350000 cells/well density in a 12-well plate, allowed 3 hours to adhere to the plate, then starved in the appropriate medium in the presence of 0.5% FBS overnight. The small molecules to be tested were added to the cells in the final concentration of 10 μM in the presence of 0.3% DMSO for 6 hours incubation at 37° C. […] Protein concentration was assessed by BCA protein assay (Thermo Scientific). Phosphorylation level of MEK was determined by western blot.
(§6) Western blot protocol: Equal amounts of protein (15-50 μg) were separated by SDS-PAGE and transferred to nitrocellulose membranes (Invitrogen by Thermo Fisher Scientific). […] Membranes were blocked with 10% milk and phosphorylation levels of MEK were assessed by incubating overnight at 4° C. with anti-phospho-MEK 1/2 (Ser217/Ser221) antibody (Cell Signaling) followed by HRP-conjugated secondary antibody (Jackson Immunoresearch, West Grove, PA). […]

MEK phosphorylation [16] = assay: Western MEK cell-based phosphorylation assay, NCI H1975; conditions: Homo sapiens
Experimental: as §4, §5, §6

T2 sequence (P01116 1-188 isoform P01116-2 G12C): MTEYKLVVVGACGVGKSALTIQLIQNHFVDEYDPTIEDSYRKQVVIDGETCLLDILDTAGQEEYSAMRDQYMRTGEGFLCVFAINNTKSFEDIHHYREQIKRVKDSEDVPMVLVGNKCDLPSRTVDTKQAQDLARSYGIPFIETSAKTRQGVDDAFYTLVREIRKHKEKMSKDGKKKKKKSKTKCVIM

## Nc1nc2c(ncn2[C@@H]2O[C@H](COP(=O)(O)OP(=O)(O)O)[C@@H](O)[C@H]2O)c(=O)[nH]1 [GDP]
[1]
  affinity for the GTP binding domain of Ras: single to double digit picomolar

## Nc1nc2c(ncn2[C@@H]2O[C@H](COP(=O)(O)OP(=O)(O)OP(=O)(O)O)[C@@H](O)[C@H]2O)c(=O)[nH]1 [GTP]
Rac-1 [2]
  Kd: 166 ± 10 nM
K-Ras (G12C) [3]
  Kd: 207 ± 46 nM
K-Ras (G12D) [4]
  Kd: 244 ± 12 nM
K-Ras (Q61H) [5]
  Kd: 157 ± 21 nM
K-Ras (wild type) [6]
  Kd: 463 ± 2 nM
Rho-A [7]
  Kd: 130 ± 5 nM
K-Ras (G12C) [8]
  Kd: 258 ± 18 nM
K-Ras (G12D) [9]
  Kd: 270 ± 15 nM
K-Ras (Q61H) [10]
  Kd: 118 ± 11 nM
K-Ras (wild type) [11]
  Kd: 243 ± 15 nM
Rac-1 [12]
  Kd: 151 ± 14 nM
Rho-A [13]
  Kd: 129 ± 12 nM
K-Ras GTP binding domain
  Kd: 100 to 465 nM
Rac-1 and Rho-A
  Kd: 120 to 170 nM
[1]
  affinity for the GTP binding domain of Ras: single to double digit picomolar

## COCCNc1nc(-c2nccn2C)nc2sc(-c3cccc(OC)c3Cl)c(-c3ccccc3)c12 [drawing 476]
MEK phosphorylation [14]
  IC50: 750 to 1000 nM
MEK phosphorylation [15]
  IC50: 750 to 1000 nM
MEK phosphorylation [16]
  IC50: > 1000 nM

## COc1cccc(-c2sc3nc(-c4nccn4C)nc(N4CCC(OC)C4)c3c2-c2ccccc2)c1F (centres unmarked) [drawing 477]
MEK phosphorylation [14]
  IC50: > 1000 nM

## CO[C@H]1CCC(Nc2nc(-c3nccn3C)nc3sc(-c4ccn(C)n4)c(-c4ccccc4)c23)C1 (some centres unmarked) [drawing 478]
MEK phosphorylation [14]
  IC50: 750 to 1000 nM
MEK phosphorylation [15]
  IC50: > 1000 nM
MEK phosphorylation [16]
  IC50: > 1000 nM
